{"source": "paper PMC12867150", "about": "“A fungi-derived cyclic peptide enhances Th9-mediated antitumor immunity by targeting ZAP70 and SREBP1” (The Journal of Clinical Investigation, 2025)", "test_system": "endogenous CD8+ T cells", "experiment": "Flow cytometry of endogenous CD8+ T cells in spleen, LN, tumor (Figure 2F-G, S1F-I)", "type": "in vivo, mouse", "conditions": "for Frequencies of endogenous CD8⁺ T cells in LN: Supplemental Figure 1I left; for Number of endogenous CD8⁺ T cells in LN: Supplemental Figure 1I right; for CD8 gate number: representative flow plot", "method": "C57BL/6 mice were subcutaneously injected with 5 × 10^5 B16-OVA melanoma cells. Five days after tumor implantation, mice received an intravenous infusion of 2 × 10^6 in vitro–differentiated Th9 cells (cultured for 5 days), which were derived from OT-II CD45.1 donor mice, accompanied by 4 × 10^5 OVA peptide–pulsed DCs via the tail vein. To enhance T cell engraftment and facilitate lymphodepletion, a single intraperitoneal injection of cyclophosphamide (200 mg/kg, Sigma, catalog C0768) was administered 1 day prior to T cell transfer. Mice were euthanized at designated time points for the collection and analysis of spleens, tumor-draining lymph nodes, and tumor tissues.\nDetails regarding staining panels (human and mouse), reagents (including clones and catalog numbers), acquisition settings, compensation/controls, and analysis procedures are provided in Supplemental Methods.\nBioLegend, Cat. No. 422301 or Mouse TruStain FcX™, BioLegend, Cat. No. 101319) for 10 minutes at 4°C. For surface marker detection, cells were stained with fluorochrome-conjugated monoclonal antibodies in 96-well V-bottom plates and incubated on ice for 30 minutes. After staining, cells were washed twice and resuspended in FACS buffer for analysis.\nPrior to intracellular cytokine staining, cells were restimulated for 4 hours with PMA (Absin, Cat. No. abs9107), ionomycin (Sigma-Aldrich, Cat. No. I0634), and brefeldin A (MedChemExpress, Cat. No. HY-16592). For intracellular cytokine staining, cells were first surface-stained as described above, then fixed and permeabilized using the BD Cytofix/Cytoperm™ kit (BD Biosciences, Cat. No. 554714) according to the manufacturer ’s protocol. Intracellular proteins were stained with directly conjugated antibodies targeting IL-9, IL-17a, IL-4, IFN-γ, TNF-α, FOXP3, p-ZAP70, Perforin, and […]\nAntibodies used for mouse samples included those against IL-9 (PE, clone RM9A4, Biolegend, Cat. No. 514104), IFN-γ (PE, clone XMG1.2, Biolegend, Cat. No.\nCat. No. 103138), CD4 (APC/Cy7, clone E-AB-F1353UJ, Elabscience, Cat. No.\nAF18028), CD8α (PerCP/Cy5.5, clone E-AB-F1104UJ, Elabscience, Cat. No. […]\nclone E-AB-F1187UH, Elabscience, Cat. No. AF19854), TNF-α (BV421, clone MP6-XT22, Biolegend, Cat. No. 506328), FOXP3 (PE, clone FJK-16s, eBioscience, Cat. No.\nPerforin (APC, clone S16009A, Biolegend, Cat. No. 154303) and Granzyme B (APC, […]\nclone QA16A02, Biolegend, Cat. No. 372203). […]\nFigure S1. EpA enhances immune responses. […]\nI) Representative flow-cytometric plots of endogenous CD4⁺ and CD8⁺ T cells in spleens (F), LNs (G), and tumors (H); frequencies and absolute numbers of endogenous CD4⁺ (G) and CD8⁺ (I) T cells in LNs are quantified. (J and K) […]\nStatistical analysis was performed using two-way ANOVA with Tukey’s post hoc test (A), one-way ANOVA with Tukey’s post hoc test (B) or two-tailed unpaired Student’s t-test (D and G–M). ns, not significant. *p < 0.05, **p < 0.01, ****p < 0.0001.\n(also on this page, place not known: Mouse weight (g) CtrlEpA CtrlEpA CtrlEpA0 I CD45.1+ T cells (%) CtrlEpA CD4+ T cells (%) CtrlEpA CtrlEpA CtrlEpA FSC CD8 CD8 FSC FSC FSC BNumber of CD45.1+ T cells (×103 per mgĎ Number of CD4+ T cells (×104 per mgĎ DC (%)NK cells (%) NK cells (%) DC (%) Number of DC (×103 per mg) Number of NK cells (×105) Number of NK cells (×103 per mg) Number of DC (×105) FSC FSC FSC CD8 CtrlEpA CtrlEpA CtrlEpA CD8+ T cells (%) Number of CD8+ T cells (×104 per mgĎ nsns ns nsns ns 40 IL-6 (pg/ml)) […]", "key": {"[1]": {"conditions": "spleens, individual mice, n = 4"}}, "note": "Values joined by “and” are separate entries in the source; they are usually repeats but may differ in a detail not shown here. Equal values may be shown once."}
{"substance": "anteiso-C15 Leu7 surfactin [EpA]", "values": [{"measurement": "Frequencies of endogenous CD8⁺ T cells in LN", "setting": "LN, replicate 1", "result": 31.6}, {"measurement": "Frequencies of endogenous CD8⁺ T cells in LN", "setting": "LN, replicate 2", "result": 27.8}, {"measurement": "Frequencies of endogenous CD8⁺ T cells in LN", "setting": "LN, replicate 3", "result": 36.5}, {"measurement": "Frequencies of endogenous CD8⁺ T cells in LN", "setting": "LN, replicate 4", "result": 27.9}, {"measurement": "Number of endogenous CD8⁺ T cells in LN", "setting": "LN, replicate 1", "result": 49988.9}, {"measurement": "Number of endogenous CD8⁺ T cells in LN", "setting": "LN, replicate 2", "result": 41201.1}, {"measurement": "Number of endogenous CD8⁺ T cells in LN", "setting": "LN, replicate 3", "result": 21505.6}, {"measurement": "Number of endogenous CD8⁺ T cells in LN", "setting": "LN, replicate 4", "result": 20877.6}, {"measurement": "CD8 gate number", "setting": "LN, Figure S1G", "result": 36.5}, {"measurement": "CD8 gate number", "setting": "Spleen, Figure S1F", "result": 34.5}, {"measurement": "CD8 gate number", "setting": "Tumor, Figure S1H", "result": 54.0}, {"measurement": "endogenous CD8+ T cell frequency", "setting": "lymph nodes, result in words", "result": "modest frequency increase"}, {"measurement": "endogenous CD8+ T cell total numbers", "setting": "lymph nodes, result in words", "result": "unchanged total numbers"}, {"measurement": "endogenous CD8+ T cell frequency and number", "setting": "spleens and tumors, result in words", "result": "markedly increased in both frequency and absolute number"}, {"measurement": "endogenous CD8 (%)", "setting": "[1]", "result": "30.4% and 27.2% and 30.6% and 34.5%"}, {"measurement": "number of CD8 T cells", "setting": "[1]", "result": "3878238 and 3825743 and 3962312 and 3201124"}, {"measurement": "endogenous CD8 T cells (%)", "setting": "tumors, individual mice, n = 4", "result": "54% and 34.7% and 36.8% and 55.2%"}, {"measurement": "number of endogenous CD8 T cells", "setting": "tumors, individual mice, n = 4", "result": "176 and 424 and 563 and 172"}]}
